Structures can show the parent of a compound that is named as a salt.
What was measured:
HEK293 cells = assay: Live-cell high-content cytotoxicity multiplex assay; type: cell-based; conditions: 100 µM, 6 h
Experimental: To explore whether the compounds affected general cell functions, we performed a live‐cell high‐content assay that allowed for the simultaneous investigation of cellular viability, compound precipitation, and maintenance of membrane integrity and mitochondrial mass.^[ [25] ^]
To assess cell viability, a live cell high‐content screen was performed in HEK293T cells as described previously.^[ [25] ^] In brief, HEK293T cells (ATCC CRL‐1573) were cultured in DMEM plus L‐glutamine (high glucose) supplemented by 10% FBS (Gibco) and penicillin/streptomycin (Gibco). Cells were seeded at a density of 1500 cells/well in 384 well plates in culture medium (cell culture microplate, PS, f‐bottom, µClear, 781 091; Greiner). Cells were stained simultaneously with 60 nM Hoechst33342 (Thermo Scientific), 75 nM Mitotracker red (Invitrogen), 0.3 µL per well annexin V Alexa Fluor 680 conjugate (Invitrogen), and 25 nL per well BioTracker 488 green microtubule cytoskeleton dye (EMD Millipore). The fluorescence and cellular shape were measured after 6 h of compound exposure using a CQ1 high‐content confocal microscope (Yokogawa). […] Images were analyzed using the CellPathfinder software (Yokogawa). Cells were detected and gated in different cell populations as described previously^[ [47] ^] using a machine learning‐based algorithm. Briefly, compound precipitation was detected as Hoechst high‐intensity objects. […]

human D3 receptor = target: T1, human D3 receptor (Homo sapiens, UniProt P35462); assay: [3H]-spiperone competition binding assay, D3; conditions: mean [CI 95%]
T1 construct: expressed in transfected cells; host or cells: CHO
T1 sequence (P35462 whole entry): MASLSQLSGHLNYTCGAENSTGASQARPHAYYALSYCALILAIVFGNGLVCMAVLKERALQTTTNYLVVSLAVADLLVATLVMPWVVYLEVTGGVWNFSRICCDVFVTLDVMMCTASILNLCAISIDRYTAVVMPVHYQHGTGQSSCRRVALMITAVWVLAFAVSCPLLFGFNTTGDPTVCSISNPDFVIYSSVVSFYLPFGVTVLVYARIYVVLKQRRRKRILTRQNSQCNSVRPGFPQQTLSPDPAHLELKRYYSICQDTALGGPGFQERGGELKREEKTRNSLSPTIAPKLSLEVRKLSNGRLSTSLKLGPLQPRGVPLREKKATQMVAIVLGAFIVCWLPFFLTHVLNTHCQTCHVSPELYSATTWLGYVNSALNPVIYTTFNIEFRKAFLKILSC
Experimental: (§1) CHO cells stably expressing human dopamine D2short (D2R) and D3 receptor (D3R) were washed and harvested using PBS. […] The cell membrane homogenate was centrifuged (20 000 × g, 20 min, 4 °C), and the resulting cell pellet was resuspended in the binding buffer. Crude membrane extracts were kept at −80 °C until use. Before starting the experiments, cell membranes were thawed, homogenized by sonication (3 × 10 s), and stored in an ice‐cold binding buffer. […] Assays were performed at least in triplicate with appropriate concentrations ranging from 0.01 nM to 100 µM of the test compound. Non‐specific binding was determined using 10 µM haloperidol. By filtering through GF/B filters pretreated with 0.3% (m/v) polyethyleneimine, the bound radioligand was separated from free radioligand using a cell harvester. Radioactivity was measured using liquid scintillation counting. Data were evaluated using the GraphPad Prism 9 software (San Diego, CA, USA) with a nonlinear regression fit.

human D2S receptor = target: T2, human D2S receptor (Homo sapiens, UniProt P14416); assay: [3H]-spiperone competition binding assay, D2; conditions: mean [CI 95%]
T2 construct: expressed in transfected cells; host or cells: CHO
T2 sequence (P14416 1-414 isoform P14416-2): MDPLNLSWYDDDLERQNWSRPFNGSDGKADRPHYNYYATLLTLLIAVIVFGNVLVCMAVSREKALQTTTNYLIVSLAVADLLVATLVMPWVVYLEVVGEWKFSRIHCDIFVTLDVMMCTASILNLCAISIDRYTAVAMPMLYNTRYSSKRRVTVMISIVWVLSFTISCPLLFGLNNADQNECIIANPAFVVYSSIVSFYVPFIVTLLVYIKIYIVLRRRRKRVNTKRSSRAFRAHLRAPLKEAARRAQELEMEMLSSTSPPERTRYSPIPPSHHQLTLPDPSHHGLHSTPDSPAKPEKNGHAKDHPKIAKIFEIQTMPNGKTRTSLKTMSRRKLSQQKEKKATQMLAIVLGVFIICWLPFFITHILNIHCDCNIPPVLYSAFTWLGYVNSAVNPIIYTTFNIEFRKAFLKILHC
Experimental: as §1

human Slack = target: T3, human Slack (Homo sapiens, UniProt Q5JUK3); assay: FluxOR potassium ion channel assay in HEK-Slack cells; type: cell-based; conditions: for EC50: HEK-Slack cells, Na+-free assay buffer, mean (95% confidence interval)
T3 construct: host or cells: HEK293
T3 sequence (Q5JUK3 1-1230): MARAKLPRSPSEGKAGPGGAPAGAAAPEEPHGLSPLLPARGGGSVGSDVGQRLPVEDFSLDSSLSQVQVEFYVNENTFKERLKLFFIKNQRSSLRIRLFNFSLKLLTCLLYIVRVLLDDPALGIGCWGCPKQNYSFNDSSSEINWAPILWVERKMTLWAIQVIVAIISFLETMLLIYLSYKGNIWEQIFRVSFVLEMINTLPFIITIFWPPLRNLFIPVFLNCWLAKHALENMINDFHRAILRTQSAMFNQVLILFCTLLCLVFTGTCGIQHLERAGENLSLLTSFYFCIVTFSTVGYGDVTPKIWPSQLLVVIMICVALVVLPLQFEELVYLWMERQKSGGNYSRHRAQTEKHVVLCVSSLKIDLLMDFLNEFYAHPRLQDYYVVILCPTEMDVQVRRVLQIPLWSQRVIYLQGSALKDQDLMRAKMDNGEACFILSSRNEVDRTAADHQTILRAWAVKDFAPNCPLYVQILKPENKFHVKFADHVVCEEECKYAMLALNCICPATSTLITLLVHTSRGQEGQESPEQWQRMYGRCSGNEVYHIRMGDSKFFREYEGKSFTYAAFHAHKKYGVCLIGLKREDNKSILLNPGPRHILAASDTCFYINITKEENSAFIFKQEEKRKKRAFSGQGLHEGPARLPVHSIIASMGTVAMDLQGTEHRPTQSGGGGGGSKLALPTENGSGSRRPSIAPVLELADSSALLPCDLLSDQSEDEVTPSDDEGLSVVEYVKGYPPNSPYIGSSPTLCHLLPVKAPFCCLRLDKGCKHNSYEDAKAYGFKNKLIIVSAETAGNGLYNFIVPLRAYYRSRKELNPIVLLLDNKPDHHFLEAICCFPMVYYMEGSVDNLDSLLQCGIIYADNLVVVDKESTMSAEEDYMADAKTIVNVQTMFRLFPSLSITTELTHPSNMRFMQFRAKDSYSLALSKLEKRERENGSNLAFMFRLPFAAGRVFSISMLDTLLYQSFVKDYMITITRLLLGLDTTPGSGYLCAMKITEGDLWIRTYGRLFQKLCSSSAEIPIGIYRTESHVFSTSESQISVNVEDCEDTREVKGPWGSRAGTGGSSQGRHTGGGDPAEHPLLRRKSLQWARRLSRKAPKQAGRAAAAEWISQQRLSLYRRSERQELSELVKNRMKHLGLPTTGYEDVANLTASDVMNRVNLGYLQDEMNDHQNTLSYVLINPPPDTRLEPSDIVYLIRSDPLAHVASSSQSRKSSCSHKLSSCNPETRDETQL
Experimental: The functional activity of this series of compounds against human Slack was determined using a cell‐based FluxOR potassium ion channel assay in cultured HEK293 cells stably expressing human Slack (herein referred to as HEK‐Slack cells) and a Na^+‐free assay buffer to prevent compound‐independent Slack activation by monovalent cations.^[ [14], [24] ^] […] Of the 114 newly synthesized compounds, 31 acted as Slack activators to varying extents. Accordingly, we deemed eight of these as the most interesting candidates.
To determine the Slack‐activating efficacy and potency of the novel compounds, a commercial FluxOR potassium ion channel assay (#10 017; Invitrogen) was used. HEK‐Slack cells were plated at a density of 50 000 cells per well on a poly‐D‐lysine coated (75 µg mL^−1, Sigma–Aldrich) 96‐well, black‐walled microplate with clear bottom (#655 090; Greiner Bio‐One) in DMEM (100 µL per well) containing 10% FBS and 1% penicillin/streptomycin 24 h prior to assaying. In the initial experiments shown in Figure S3A–F (Supporting Information), HEK‐Slack cells were plated at a density of 100 000 cells/well 48 h prior to the assay. On the day of the experiment, the cells were loaded with FluxOR dye according to the manufacturer's protocol. A Na^+‐free assay buffer, adjusted to pH 7.4 with KOH, containing 140 mM choline chloride, 5 mM KCl, 2 mM CaCl2, 2 mM MgSO4, 10 mM HEPES, and 5.55 mM glucose was used. To reduce background fluorescence, all assay components were complemented with a 10% BackDrop Background Suppressor (#B10511; Invitrogen).
All compounds were prepared as a 333 mM stock in DMSO and diluted on the experimental day to a final concentration of 100, 50, 25, 12.5, 6.25, 3.125, or 1.5625 µM in an assay buffer with DMSO adjusted to 0.03%. Before treatment, the cells were washed, and the medium was exchanged for the assay buffer. In a total volume of 90 µL per well, the cells were then incubated for 30 min at 37 °C with compounds at the indicated concentrations, or 0.03% DMSO alone as the vehicle. […] Fluorescence was measured using an Infinite M200 microplate reader (Tecan) with excitation at 485 nm (9 nm bandwidth) and emission at 525 nm (20 nm bandwidth) in the bottom read mode. First, the baseline fluorescence of the individual wells was established. Thereafter cells were stimulated with 20 µL Tl2SO4 (5 mM) solution injected at 100 µL s^−1, and fluorescence was further recorded for 100 s. Assays were run in triplicate. For all time points, the ratio of fluorescence to baseline fluorescence was calculated first for individual wells, and the average was then used.
Dose‐response curves comprising six concentrations were obtained in triplets using fluorescence/fluorescenceBaseline ratios at the 100th s.

[1] = Metabolic stability assay in rat liver microsomes; type: in vitro ADME; conditions: 10 µM, 15, 30 and 60 min
Experimental: We next assessed the metabolic stability of these compounds (10 µM) in rat liver microsomes (Figure 2A). […] Therefore, we assumed that the occupation of metabolically labile sites at the aromatic core and the reduction in electron density at the oxidizable nitrogen atom of the piperazine ring might increase metabolic stability. Indeed, both the introduction of fluorine at R^2 and the introduction of an electron‐withdrawing carboxylic acid linker at R^3 improved metabolic stability. The substitution of chlorine with a trifluoromethyl group at R^1 was also beneficial. In contrast, homopiperazine and hydroxy linkers were metabolically labile.
The solubilized test compound (5 µL, final concentration 10 µM) was preincubated at 37 °C in 432 µL phosphate buffer (0.1 M, pH 7.4) together with 50 µL NADPH regenerating system (30 mM glucose‐6‐phosphate, 4 U mL^−1 glucose 6‐phosphate dehydrogenase, 10 mM NADP, and 30 mM MgCl2). After 5 min, the reaction started upon the addition of 13 µL of microsome mix from the liver of Sprague‐Dawley rats (Invitrogen; 20 mg protein per mL in 0.1 M phosphate buffer) in a shaking water bath at 37 °C. The reaction was stopped by adding 500 µL ice‐cold methanol at 0, 15, 30, and 60 min. The samples were centrifuged at 5000 × g for 5 min at 4 °C and the test compound was quantified from the supernatants by HPLC; the composition of the mobile phase was adapted to the test compound in a range of MeOH 40−90% and water (0.1% formic acid) 10−60%. Flow rate: 1 mL min^−1; stationary phase: Purospher STAR, RP18, 5 µm, 125 × 4; precolumn: Purospher STAR, RP18, 5 µm, 4 × 4; detection wavelength: 254 and 280 nm; injection volume: 50 µL. Control samples were used to evaluate the stability of the test compounds in the reaction mixture. The first control was without NADPH, which is needed for the enzymatic activity of the microsomes, the second control was with inactivated microsomes (incubated for 20 min at 90 °C), and the third control was without the test compound (to determine the baseline). The amounts of test compounds were quantified using an external calibration curve.

mice = assay: Pulse oximetry in conscious, freely moving mice; conditions: 10 mg kg−1 i.p., observation period of 30 min
Experimental: To measure cardiovascular function, a pulse oximeter (MouseOX Plus, Starr Life Sciences Corp.) was used in conscious, freely moving mice. After three consecutive days of habituating the mice to the collar clip for at least 30 min, baseline measurements were performed. […] All the datasets were sampled at 1 Hz, error‐corrected according to the manufacturer's instructions, and averaged over 300 s for each time point.

SMILES | compound precipitation (HEK293 cells) | Ki (human D3 receptor) [µM] | Ki (human D2S receptor) [µM] | Emax (human Slack) [%] | EC50 (human Slack) [µM] | metabolic stability [1] | breath rate (mice) | heart rate (mice)
CN1CCN(C2=Nc3ccccc3Oc3ccc(C(F)(F)F)cc32)CC1 [Compound 1] | compound precipitation was only detected | 0.0122 | 0.0036 | 114 | 6.3 |  |  | 
CN1CCCN(C2=Nc3ccccc3Oc3ccc(C(F)(F)F)cc32)CC1 [Compound 2] |  | 0.0624 | 0.0828 | 63.1 | 3.2 |  |  | 
CN1CCN(C2=Nc3cc(F)ccc3Oc3ccc(C(F)(F)F)cc32)CC1 [Compound 3] |  | 0.0226 | 0.00289 | 199 | 41.5 |  |  | 
OCCN1CCN(C2=Nc3ccccc3Oc3ccc(Cl)cc32)CC1 [Compound 4] |  | 0.176 | 0.05 | 223 | 26 |  |  | 
OCCOCCN1CCN(C2=Nc3ccccc3Sc3ccc(Cl)cc32)CC1 [Compound 5] |  | 0.0634 | 0.0449 | 87.4 | 30 |  |  | 
O=C(O)COCCN1CCN(C2=Nc3ccccc3Oc3ccc(C(F)(F)F)cc32)CC1 [Compound 7] |  | 0.0407 | 0.0274 | 177 | 62.5 | highest metabolic stabilities |  | 
O=C(O)COCCN1CCCN(C2=Nc3ccccc3Oc3ccc(C(F)(F)F)cc32)CC1 [Compound 8] |  | 0.421 | 0.134 | 186 | 50.9 |  |  | 
CN1CC[C@]23c4c5ccc(O)c4O[C@H]2[C@@H](O)C=C[C@H]3[C@H]1C5 [morphine, morphine sulfate pentahydrate, reference compound] |  |  |  |  |  |  | reduced | reduced

Reference: article PMC11022729 (Advanced Science, 2024)
